One molecule from article PMC10290391, “Targeted degradation of ⍺-synuclein aggregates in Parkinson’s disease using the AUTOTAC technology” (Molecular Neurodegeneration, 2023) can be followed below.

Several values for one entry are separate records, joined by “and”; a condition that tells them apart may be missing. Identical values can stand only once. Entries after “also recorded” stand apart in the source; their conditions may differ.

Data set [1] is described as follows: Brain penetration of ATC161 in TauP301L-BiFC AD mouse model. Particulars: after 4 h of oral administration. Type of data set: in vivo, mice. The method, then: Supplementary file 13024_2023_630_MOESM1_ESM.eps: Additional file 1: Supplementary figure 1. Drug profiles of ATL and Autotac compounds. A, drug profiles of ATL compounds. Tissue concentrations and oral bioavailability were measured in ICR male mice upon 5 mg/kg oral administration of each ATL compound. B, structures of ATC161~164. C, Pharmacokinetic study of ATC161 conducted in male ICR mice otherwise indicated. M.W. represents molecular weight. The plasma exposure and the half-life were determined upon either POor IPATC161 administration. The drug tissue exposure was determined in Tau301L BiFC mice. IV refers to intravenous injection.

For data set [2], the system named is insoluble α-syn species. The data set is described as follows: Triton X-100 fractionation assay in primary rat cortex neurons. Type of data set: cell-based. The method, then:
All procedures were conducted according to the IACUC and were approved by Seoul National University Institutional Animal Care and Use Committee. Rat cortex primary neuron were prepared from E16 Sprague–Dawley rat embryos (Orient Bio). Anesthetized […] were sacrificed by cervical dislocation, and embryos were removed. Cortices were dissected on the ice. Neurons were trypsinized, dissociated and plated onto poly-d-lysine coated cover slips at a density of 5 × 10^4 cells per cm^2 per 12-well plate or 6-well plate. Primary neurons were maintained in Neurobasal A medium containing 2% B27, 0.5 mM glutamax and antibiotics. Cells at 7 DIV were treated with h-α-syn PFF (1 µg/mL) for 14 d.
For the separation of Triton X-100 soluble and insoluble fractions for monitoring α-syn, cells were washed with PBS and lysed in Triton X-100 buffer (50 mM Tris / 150 mM NaCl / 100 mM EDTA / 1% Triton X-100, pH 7.6) containing protease and phosphatase inhibitors for 30 min on ice. The lysates were centrifuged at 12,000 rpm for 30 min, and the soluble supernatant was taken. The remaining pellets were washed with Triton X-100 buffer, followed by centrifugation at 12,000 rpm for 20 min. […] Immunoreactive bands were detected using ECL reagents (Thermo Fisher Scientific, 32,106). […] Densitometry of developed bands was analyzed with ImageJ (NIH, Bethesda).

For data set [3], the system named is extracellular total α-syn. The data set is described as follows: ELISA of extracellular α-syn in conditioned media of SH-SY5Y α-syn A53T cells. Type of data set: cell-based, human. The method, then:
The conditioned medium was collected from differentiated SH-SY5Y cells infected with adenovirus overexpressing human α-syn. Following 24 h infection, the medium was replaced with fresh media containing DMSO or ATC161. The medium was collected after 24 h and centrifuged at 1,000 rpm to remove cell debris and dead cells. The supernatant was concentrated using Amicon 10 K MWCO filters (Millipore, Billerica, MA). The amounts of α-syn in conditioned medium were measured by enzyme-linked immunosorbent assay (ELISA) with an ELISA kit (Abcam, human α-syn ELISA kit, ab260052) following the provider’s instruction. The subsets of collected media were treated to fresh SH-SY5Y cells in order to determine the level of α-syn propagated to the fresh cells.

Data set [4] deals with SH-SY5Y α-syn A53T cells. Nature of the data set: MitoTracker Red analysis in SH-SY5Y α-syn A53T cells treated with rotenone. The conditions noted are these: 0.1 μM, 24 h; vs vehicle-treated cells. Type of data set: cell-based, human. How it is done: Adenovirus overexpressing human wild-type SNCA was kindly gifted from the lab of S.J.L. COS7 cells were infected with the adenovirus overexpressing human α-syn at 0.8 × 10^8 pfu and incubated at 37 °C for 24 h. When the confluency reached 90%, the cells were split onto 6-well plates for further experiments. The α-syn aggregation was induced by the treatment of 100 nM rotenone (Sigma-Aldrich, R8875) for 56 h. For the MitoTracker analyses in SH-SY5Y α-syn A53T cells, rotenone was treated at 1 µM for 48 h with the co-treatment of 100 nM ATC161 for 24 h, then MitoTracker Red CMXRos (Invitrogen; M7512) was used to stain intact mitochondria following the manufacturer’s instruction.

Data set [5] deals with LAMP1+ lysosomes. The data set is described as follows: Immunocytochemistry of LAMP1+ lysosomes in SH-SY5Y α-syn A53T cells transduced with PFFs. Type of data set: cell-based, human. Particulars: 1 μM, 6 h, with Baf. A1. How it is done: (§1) Cells were fixed with 4% paraformaldehyde (PFA) for 20 min at room temperature, followed by permeabilization with 0.1% Triton X-100 buffer for 15 min. The cells were blocked with 2% bovine serum albumin (BSA) in PBS for 1 h at room temperature. Then, the cells were incubated with primary antibodies diluted in the blocking buffer overnight at 4 °C. After washing with PBS, the slides were incubated with AlexaFluor-conjugated secondary antibodies for 1 h at room temperature. After mounting the slides with mounting solution containing DAPI, the images were captured on an LSM700 confocal microscopy (Carl Zeiss).

Data set [6] deals with HEK293A cells transduced with h-α-syn PFFs. Nature of the data set: Immunocytochemistry in HEK293A cells transduced with h-α-syn PFFs. Type of data set: cell-based, human. How it is done: (§2) Recombinant human α-syn (1–140) were obtained from NKMAX (SNA2001L). In vitro fibrillization was performed by diluting recombinant α-syn monomers to 1 mg/mL in sterile PBS, then incubating at 37 °C with constant agitation at 1,000 rpm for seven days. The fibrillization was verified by thioflavin T and sedimentation assays. The ability to form phospho-α-syn (S129) was also assessed by immunocytochemistry. In addition, to determine whether the generated PFFs act as seeds to accumulate endogenous α-syn, an adenovirus that expresses c-Myc-His-tagged human α-syn (gifted from lab of S.J.L) was used to infect cultured cells at an MOI of 10, followed by a fractionation assay. The administration of PFFs into 293A cells was done with protein delivery reagent (BioPORTER QuikEase Protein Delivery Kit, Sigma) following the provider’s instruction. The mouse α-syn PFFs were obtained from StressMarq (SPR-324). Prior to treatment, PFFs were sonicated at 20% amplitude, 1 s pulse on and off for 30 s (SONICS Vibra Cell sonicator, Merck Z412619). For cells, α-syn monomers and PFFs were transduced at 1 µg/mL.
as §1

The subject of data set [7] is LC3. Nature of the data set: Western blot of LC3 lipidation (LC3-I into LC3-II) in HeLa cells. Type of data set: cell-based. The conditions noted are these: 1 μM, 24 h. How it is done: (§3) For the separation of Triton X-100 soluble and insoluble fractions for monitoring α-syn, cells were washed with PBS and lysed in Triton X-100 buffer (50 mM Tris / 150 mM NaCl / 100 mM EDTA / 1% Triton X-100, pH 7.6) containing protease and phosphatase inhibitors for 30 min on ice. The lysates were centrifuged at 12,000 rpm for 30 min, and the soluble supernatant was taken. The remaining pellets were washed with Triton X-100 buffer, followed by centrifugation at 12,000 rpm for 20 min. The supernatants were discarded, and the resulting insoluble pellets were resuspended in laemli buffer containing 1% SDS. Samples were subjected to SDS-PAGE. After blocking with 5% milk and washing process, the membranes were incubated with primary antibodies overnight at 4 °C, followed by washing with PBS-T and incubation with horseradish peroxidase-conjugated secondary antibodies. Immunoreactive bands were detected using ECL reagents (Thermo Fisher Scientific, 32,106). For non-reducing SDS-PAGE, cell lysates were mixed with 4 × laemli buffer containing no 2-mercaptoethanol. For reducing SDS-PAGE, cells were lysed by RIPA buffer (150 mM NaCl, 1% Triton X-100, 1% sodium deoxycholate, 0.1% Tris–HCl, pH 7.5, 2 mM EDTA) and prepared with 5 × protein sample buffer containing 2-mercaptoethanol (Elpis Biotech, EBA-1052). Densitometry of developed bands was analyzed with ImageJ (NIH, Bethesda).

In data set [8] the test system is α-syn aggregates. The data set is described as follows: Triton X-100 fractionation assay in SH-SY5Y α-syn A53T cells transduced with α-syn PFFs. Type of data set: cell-based, human. The method, then: as §2, with “Prior to treatment, PFFs were sonicated at 20% amplitude, 1 s pulse on and off for 30 s (SONICS Vibra Cell sonicator, Merck Z412619). For cells, α-syn monomers and PFFs were transduced at 1 µg/mL.” left out
For the separation of Triton X-100 soluble and insoluble fractions for monitoring α-syn, cells were washed with PBS and lysed in Triton X-100 buffer (50 mM Tris / 150 mM NaCl / 100 mM EDTA / 1% Triton X-100, pH 7.6) containing protease and phosphatase inhibitors for 30 min on ice. […] Immunoreactive bands were detected using ECL reagents (Thermo Fisher Scientific, 32,106). […] Densitometry of developed bands was analyzed with ImageJ (NIH, Bethesda).

For data set [9], the system named is cleaved-PARP1. The data set is described as follows: Western blot of cleaved-PARP1 in h-α-syn PFF-transduced HEK293A cells. Type of data set: cell-based, human. The conditions noted are these: 1 μM, 24 h. How it is done: as §3

`Fc1ccc(COc2cccc(CNCCOCCOCCNc3cccc(-c4cc(-c5ccc6c(c5)OCO6)n[nH]4)c3)c2)cc1` [ATC161, 3-(3-(benzo[d][1,3]dioxol-5-yl)-1H-pyrazol-5-yl)-N-(2-(2-(2-((3-((4-fluorobenzyl)oxy)benzyl)amino)ethoxy)ethoxy)ethyl)aniline] showed a Kp at 4 h in [1] of around 0.1. In addition, in data set [2] (PD model cells (discussion)), the “concentration of lysosomal degradation of aggregates” value was 10 nM. In data set [2] (primary rat cortex neurons, soluble monomeric form intact), the “concentration from which insoluble α-syn species are targeted” value is on record as 10 nM. The “reduction of relative level of extracellular total α-syn” value in [3] was determined as 50%. Also, the “MitoTracker fluorescence (mitochondrial integrity)” value in [4] is given as “increased level of MitoTracker signals”. The “increase in level of LAMP1+ lysosomes” value in [5] was determined as 2.9 fold. Besides, in data set [6] (0.1 μM, 48 h), the “number of phospho-H2AX+ foci (DNA double strand breaks)” value was “robust efficacy to reduce the number of phospho-H2AX^+ foci”. Further, in data set [6] (1 μM, 24 h), the “reduction in number of α-syn+ cytosolic puncta” value is recorded as 55%. For the same molecule, the “lipidation of LC3 into LC3-II compared with ATC162” value in data set [7] is given as “induced the lipidation of LC3 into LC3-II more efficiently”. In [8] (Triton X-100 insoluble fraction, read-out: half degradation concentration (DC50) of α-syn aggregates), the DC50 was ~100 nM and 100 nM. Moreover, the “degradation of monomeric α-syn” value in [8] (soluble fraction) is given as “No apparent degradation; also recorded: no such degradation was observed”. Further, in data set [9], the “cleaved-PARP1 level (apoptotic process)” value is listed as “efficiently inhibited such an apoptotic process”.
